Legend:
[1] = target: C-X-C chemokine receptor type 4 (Homo sapiens, UniProt P61073); experiment: Antagonist activity at CXCR4 (unknown origin); assay type: functional
[2] = target: Amyloid-beta precursor protein (Homo sapiens) (UniProt P05067); experiment: Inhibition of amyloid-beta (1 to 42 residues) (unknown origin) aggregation at 20 uM incubated for 6 hrs by ThT fluorescence based spectrofluorimetric analysis relative to control
[3] = target: Amyloid-beta precursor protein (Homo sapiens) (UniProt P05067); experiment: Inhibition of amyloid-beta (1 to 42 residues) (unknown origin) aggregation at 10 uM incubated for 6 hrs by ThT fluorescence based spectrofluorimetric analysis relative to control

Chain of Amyloid-beta precursor protein (Homo sapiens) (P05067 whole entry, the tested form may be a part): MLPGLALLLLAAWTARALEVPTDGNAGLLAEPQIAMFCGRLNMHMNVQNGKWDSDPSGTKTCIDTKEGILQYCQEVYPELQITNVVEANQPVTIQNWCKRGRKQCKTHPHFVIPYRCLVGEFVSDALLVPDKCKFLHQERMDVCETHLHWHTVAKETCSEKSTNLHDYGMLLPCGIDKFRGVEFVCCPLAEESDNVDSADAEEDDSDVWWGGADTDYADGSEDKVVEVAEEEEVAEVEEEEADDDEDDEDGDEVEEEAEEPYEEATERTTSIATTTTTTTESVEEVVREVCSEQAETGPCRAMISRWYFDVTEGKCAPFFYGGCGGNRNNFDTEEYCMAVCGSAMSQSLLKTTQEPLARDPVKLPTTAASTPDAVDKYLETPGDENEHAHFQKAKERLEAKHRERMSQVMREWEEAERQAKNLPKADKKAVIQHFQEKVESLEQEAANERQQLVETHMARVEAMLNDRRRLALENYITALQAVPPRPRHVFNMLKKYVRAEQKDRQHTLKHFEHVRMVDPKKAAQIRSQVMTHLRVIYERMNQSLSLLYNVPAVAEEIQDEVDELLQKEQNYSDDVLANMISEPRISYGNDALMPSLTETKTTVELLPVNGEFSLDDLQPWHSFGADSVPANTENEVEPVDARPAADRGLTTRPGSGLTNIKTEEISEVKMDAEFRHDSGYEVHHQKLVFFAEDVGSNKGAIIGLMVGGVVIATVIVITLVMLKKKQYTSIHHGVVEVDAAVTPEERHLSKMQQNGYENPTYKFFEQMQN
Chain of C-X-C chemokine receptor type 4 (P61073 whole entry, the tested form may be a part): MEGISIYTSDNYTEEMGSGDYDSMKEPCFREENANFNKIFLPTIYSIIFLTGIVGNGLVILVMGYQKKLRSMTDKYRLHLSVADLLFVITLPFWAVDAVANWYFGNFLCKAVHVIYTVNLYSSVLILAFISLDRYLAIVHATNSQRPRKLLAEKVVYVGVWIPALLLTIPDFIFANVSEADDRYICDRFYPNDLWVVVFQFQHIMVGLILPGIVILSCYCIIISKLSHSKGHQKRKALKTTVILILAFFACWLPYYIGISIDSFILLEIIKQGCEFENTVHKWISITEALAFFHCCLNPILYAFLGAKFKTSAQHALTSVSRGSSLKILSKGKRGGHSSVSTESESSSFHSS

Row | SMILES | EC50 [1] | inhibition [2] | inhibition [3]
1 | N=C(N)NCCC[C@H]1/C=C/[C@@H](CCCNC(=N)N)C(=O)N[C@@H](Cc2ccc3ccccc3c2)C(=O)NCC(=O)N[C@H](Cc2ccc(O)cc2)C(=O)N1 | 1460 nM | – | –
2 | CC(C)C[C@H](NC(=O)[C@@H](N)CCCCN)C(=O)N[C@H](C(=O)N[C@@H](Cc1ccccc1)C(=O)N[C@@H](Cc1ccccc1)C(=O)O)C(C)C | – | 90.2% | –
3 | CC(C)C[C@H](NC(=O)[C@@H](N)CCCCN)C(=O)N[C@H](C(=O)/C(Cl)=C/N[C@@H](Cc1ccccc1)C(=O)N[C@@H](Cc1ccccc1)C(=O)O)C(C)C | – | 79.6% | –
4 | CC(C)C[C@@H]1NC(=O)[C@@H](CCCCN)NC(=O)[C@@H](Cc2ccccc2)NC(=O)[C@H](Cc2ccccc2)NC(=O)[C@@H](C(C)C)NC1=O | – | 20.3% | 77.9%
5 | CC(C)C[C@H]1NC(=O)[C@H](CCCCN)NC(=O)[C@H](Cc2ccccc2)NC(=O)[C@@H](Cc2ccccc2)N/C=C(\Cl)C(=O)[C@H](C(C)C)NC1=O | – | 24.6% | 30.1%

Now from value to compound:

Row | EC50 [1] | inhibition [2] | inhibition [3] | SMILES
6 | – | 36% | – | O=c1c(O)c(-c2ccc(O)cc2O)oc2cc(O)cc(O)c12
7 | 1780 nM | – | – | N=C(N)NCCC[C@@H]1NC(=O)[C@@H](Cc2ccc(O)cc2)NC(=O)CNC(=O)[C@H](Cc2ccc3ccccc3c2)NC(=O)[C@H](CCCNC(=N)N)/C=C/1F

Reference: ChEMBL document CHEMBL5576093, “Design, synthesis and evaluation of bioactivity of peptidomimetics based on chloroalkene dipeptide isosteres” (Bioorg Med Chem, 2024)
